Tests used:
[1] = tested on: Aβtotal; experiment: In vivo efficacy: brain soluble Aβtotal in non-transgenic rodents (ELISA); conditions: Mus musculus, dose 30 mg/kg oral dosing, brain soluble fraction, animals sacrificed after 4 h, untreated animals (Ctrl) set at 100, read-out: Aβtotal (% vs Ctrl)_Mean
From the text: (§1) To determine whether acute administration of an Aβ42 lowering agent would reduce Aβ42 levels in vivo, non-transgenic rodents, e.g. mice or rats were used. Animals treated with the Aβ42 lowering agent were examined and compared to those untreated or treated with vehicle and brain levels of soluble Aβ42 and total Aβ were quantitated by standard techniques, for example, using ELISA. Treatment periods varied from hours (h) to days and were adjusted based on the results of the Aβ42 lowering once a time course of onset of effect could be established.
(§2) A typical protocol for measuring Aβ42 lowering in vivo is shown but it is only one of many variations that could be used to optimize the levels of detectable Aβ. For example, Aβ42 lowering compounds were formulated in 20% of Captisol® (a sulfobutyl ether of β-cyclodextrin) in water or 20% hydroxypropyl β cyclodextrin. The Aβ42 lowering agents were administered as a single oral dose or by any acceptable route of administration to overnight fasted animals. After 4 h, the animals were sacrificed and Aβ42 levels were analysed.
(§3) Blood was collected by decapitation and exsanguinations in EDTA-treated collection tubes. Blood was centrifuged at 1900 g for 10 minutes (min) at 4° C. and the plasma recovered and flash frozen for later analysis. The brain was removed from the cranium and hindbrain. The cerebellum was removed and the left and right hemisphere were separated. The left hemisphere was stored at −18° C. for quantitative analysis of test compound levels. The right hemisphere was rinsed with phosphate-buffered saline (PBS) buffer and immediately frozen on dry ice and stored at −80° C. until homogenization for biochemical assays.
(§4) Mouse brains from non-transgenic animals were resuspended in 8 volumes of 0.4% DEA (diethylamine)/50 mM NaCl containing protease inhibitors (Roche-11873580001 or 04693159001) per gram of tissue, e.g. for 0.158 g brain, add 1.264 ml of 0.4% DEA. All samples were homogenized in the FastPrep-24 system (MP Biomedicals) using lysing matrix D (MPBio #6913-100) at 6 m/s for 20 seconds. Homogenates were centrifuged at 221.300×g for 50 min. The resulting high speed supernatants were then transferred to fresh eppendorf tubes. Nine parts of supernatant were neutralized with 1 part 0.5 M Tris-HCl pH 6.8 and used to quantify Aβtotal and Aβ42.
(§5) To quantify the amount of Aβtotal and Aβ42 in the soluble fraction of the brain homogenates, Enzyme-Linked-Immunosorbent-Assays were used. Briefly, the standards (a dilution of synthetic Aβ1-40 and Aβ1-42, Bachem) were prepared in 1.5 ml Eppendorf tube in Ultraculture, with final concentrations ranging from 10000 to 0.3 pg/ml. The samples and standards were co-incubated with HRPO-labelled N-terminal antibody for Aβ42 detection and with the biotinylated mid-domain antibody 4G8 for Aβtotal detection. 50 μl of conjugate/sample or conjugate/standards mixtures were then added to the antibody-coated plate (the capture antibodies selectively recognize the C-terminal end of Aβ42, antibody JRF/cAβ42/26, for Aβ42 detection and the N-terminus of Aβ, antibody JRF/rAβ/2, for Aβtotal detection). The plate was allowed to incubate overnight at 4° C. in order to allow formation of the antibody-amyloid complex. Following this incubation and subsequent wash steps the ELISA for Aβ42 quantification was finished by addition of Quanta Blu fluorogenic peroxidase substrate according to the manufacturer's instructions (Pierce Corp., Rockford, Ill.). A reading was performed after 10 to 15 min (excitation 320 nm/emission 420 nm).
For Aβtotal detection, a Streptavidine-Peroxidase-Conjugate was added, followed 60 min later by an additional wash step and addition of Quanta Blu fluorogenic peroxidase substrate according to the manufacturer's instructions (Pierce Corp., Rockford, Ill.). A reading was performed after 10 to 15 min (excitation 320 nm/emission 420 nm). […]

[2] = tested on: Aβ42; experiment: In vivo efficacy: brain soluble Aβ42 in non-transgenic rodents (ELISA); conditions: Mus musculus, dose 30 mg/kg oral dosing, brain soluble fraction, animals sacrificed after 4 h, untreated animals (Ctrl) set at 100, read-out: Aβ42 (% vs Ctrl)_Mean
From the text: as §1, §2, §3, §4, §5
In this model a Aβ42 lowering compared to untreated animals would be advantageous, in particular a Aβ42 lowering with at least 10%, more in particular a Aβ42 lowering with at least 20%.
The results are shown in Table 4 (dose 30 mg/kg oral dosing) (value for untreated animals as control (Ctrl) was set at 100): […]

Row | Compound | response vs control in vivo at 30 mg/kg [1] | response vs control in vivo at 30 mg/kg [2]
1 | Cc1cn(-c2ccc3n(c2=O)CCN(C(C)c2cccc(Cl)c2Cl)C3=O)cn1 (single isomer, unassigned) [10a] | 118% | 87%
2 | CCC1Cn2c(ccc(-n3cnc(C)c3)c2=O)C(=O)N1Cc1cc(C(F)(F)F)cc(C(F)(F)F)c1.Cl (stereo not drawn) [compound 1] | 89% | 61%
3 | Cc1cn(-c2ccc3n(c2=O)C[C@@H](C)N(Cc2ccc(Cl)c(Cl)c2)C3=O)cn1 [compound 2] | 100% | 82%
4 | Cc1cn(-c2ccc3n(c2=O)CC(C)N(Cc2cc(C(F)(F)F)cc(C(F)(F)F)c2)C3=O)cn1 (stereo not drawn) [compound 3] | 98% | 55%
5 | Cc1cn(-c2ccc3n(c2=O)CCN(Cc2cccc(-c4ccccc4)c2)C3=O)cn1 [compound 5] | 87% | 78%
6 | Cc1cn(-c2ccc3n(c2=O)CC(C)N(Cc2cc(OCC4CC4)cc(C(F)(F)F)c2)C3=O)cn1.Cl (stereo not drawn) [compound 6] | 102% | 85%
7 | CCc1cn(-c2ccc3n(c2=O)CC(C)N(Cc2cc(C(F)(F)F)cc(C(F)(F)F)c2)C3=O)cn1.Cl (stereo not drawn) [compound 7] | 94% | 73%
8 | Cc1cn(-c2ccc3n(c2=O)CCN(Cc2ccccc2C)C3=O)cn1 [compound 22] | 92% | 106%
9 | Cc1cn(-c2ccc3n(c2=O)C[C@@H](C)N(Cc2cccc(C(C)(C)C)c2)C3=O)cn1 [compound 23] | 122% | 122%
10 | Cc1cn(-c2ccc3n(c2=O)C[C@@H](C)N(Cc2ccc(C(F)(F)F)c(C(F)(F)F)c2)C3=O)cn1 [compound 46] | 87% | 60%
11 | Cc1cn(-c2ccc3n(c2=O)C[C@@H](C)N(CCc2cc(C(F)(F)F)cc(C(F)(F)F)c2)C3=O)cn1 [compound 50] | 91% | 88%
12 | Cc1cc(CN2C(=O)c3ccc(-n4cnc(C)c4)c(=O)n3C[C@H]2C)cc(C(F)(F)F)c1 [compound 59] | 126% | 82%
13 | Cc1cn(-c2ccc3n(c2=O)C[C@@H](C)N(Cc2ccc(Cl)c(C(F)(F)F)c2)C3=O)cn1 [compound 62] | 98% | 68%
14 | Cc1cn(-c2ccc3n(c2=O)C[C@@H](C)N(Cc2cc(Cl)cc(C(F)(F)F)c2)C3=O)cn1 [compound 63] | 124% | 82%
15 | Cc1cn(-c2ccc3n(c2=O)CCN(Cc2ccc(Cl)c(C(F)(F)F)c2)C3=O)cn1 [compound 65] | 114% | 104%
16 | Cc1cn(-c2ccc3n(c2=O)C[C@@H](C)N(Cc2cc(N4CCC(C)CC4)ccc2Cl)C3=O)cn1 [compound 80] | 119% | 119%
17 | Cc1cn(-c2ccc3n(c2=O)C[C@@H](C)N(Cc2cc(N4CCCC4)ccc2Cl)C3=O)cn1 [compound 82] | 125% | 78%
18 | Cc1cn(-c2ccc3n(c2=O)CCN(Cc2ccc(C)c(N4CCCCC4)c2)C3=O)cn1 [compound 99] | 113% | 111%

From US20150141411A1, “SUBSTITUTED 3,4-DIHYDRO-2H-PYRIDO[1,2-A]PYRAZINE-1,6-DIONE DERIVATIVES USEFUL FOR THE TREATMENT OF (INTER ALIA) ALZHEIMER'S DISEASE” (Janssen Pharmaceuticals, Inc., priority 2012, published 2015)
